Source: ChEMBL document CHEMBL3301361, “Experimental in vitro DMPK and physicochemical data on a set of publicly disclosed compounds”
Converted amounts (≈) assume the structure as drawn.

Key:
in vitro [1] = details: human
physchem [2] = details: pH 7.4 buffer
physchem [3] = test: physchem
physchem [4] = test: physchem; remark: listed apart in the source
in vitro [5] = details: hepatocytes
in vitro [6] = details: mouse, plasma
in vitro [7] = details: human, plasma
physchem [8] = details: octan-1-ol/water
in vitro [9] = details: Beagle, dog, plasma
in vitro [10] = details: SD, HW or BN, rat, plasma
in vitro [11] = details: human, hepatocytes

pKa (physchem [3]) | pKa (physchem [4]) | fraction unbound at 5 h (in vitro [6]) | logD (physchem [8]; pH 7.4, LogD7.4) | fraction unbound at 5 h (in vitro [9]) | fraction unbound at 5 h (in vitro [7]; PPB) | SMILES | also measured
6.7 | 2.9 |  |  |  |  | Cc1cc(CN(CC(=O)Nc2ccc(Cl)cc2Cl)C2CCCCC2)ccc1OCC(=O)O | microsomal CLint (in vitro [1]; microsomes): 101 µL/min/mg; solubility thermodynamic (physchem [2]): 813 µM (≈ 390 µg/mL); hepatocyte CLint (in vitro [5]): 43.4 µL/min/1e6 cells
 |  | 0.0043 |  |  |  | O=c1c2cc(-c3ccc(Cl)cc3)oc2ccn1-c1ccc2c(cnn2CCN2CCCC2)c1 | 
6.2 | 3.1 |  | 2.41 |  |  | Cc1cc(CN2Cc3ccccc3C[C@H]2C(=O)Nc2ccc(Cl)cc2Cl)ccc1OCC(=O)O | microsomal CLint (in vitro [1]; microsomes): 11 µL/min/mg; solubility thermodynamic (physchem [2]): 347 µM (≈ 173 µg/mL); hepatocyte CLint (in vitro [5]): 31 µL/min/1e6 cells
 | 3.4 |  | -0.43 | 0.0082 | 0.0268 | CCS(=O)(=O)c1ccc(-c2cc(Cl)ccc2OCC(=O)O)c(Cl)c1 | microsomal CLint (in vitro [1]; liver microsomes): < 3 µL/min/mg
 | 3.7 |  | 0.06 | 0.0167 | 0.0052 | Cc1ccc2c(c1)c(S(=O)(=O)c1ccc(Cl)cc1)c(C)n2CC(=O)O | microsomal CLint (in vitro [1]; liver microsomes): 7 µL/min/mg
 |  | 0.0013 | 3.45 |  |  | N#Cc1c(-c2ccc(-c3ccccc3OC(F)(F)F)cc2)nc2ccncc2c1O | solubility thermodynamic (physchem [2]): 3.3 µM (≈ 1.34 µg/mL)
 |  | 0.0005 |  |  |  | CC(C)Oc1ccc(-c2nc(-c3cccc4c(CCC(=O)O)c[nH]c34)no2)cc1Cl | 
8.8 | 5.05 |  | 1.68 |  | 0.0033 | COc1ccc(COc2nc(Br)cnc2NS(=O)(=O)c2ccc(C)cc2)cc1OCCN(C)C | microsomal CLint (in vitro [1]; liver microsomes): 7 µL/min/mg; solubility thermodynamic (physchem [2]): 77.6 µM (≈ 42.8 µg/mL); hepatocyte CLint (in vitro [5]): 31 µL/min/1e6 cells
 |  | 0.11 | 2.8 |  |  | Nc1scc2c(C(=O)NC3CC3)nn(-c3ccc(F)cc3)c(=O)c12 | 
2.6 | 5 |  | 1.59 | 0.0035 | 0.0018 | Cc1ccc2c(c1)c(-c1ccnc3cc(Cl)ccc13)c(C)n2CC(=O)O | microsomal CLint (in vitro [1]; liver microsomes): 4 µL/min/mg
 |  | 0.0409 |  |  | 0.0293 | NC1=NC(c2ccnc(C(F)(F)F)c2)(c2ccc(F)c(-c3cncnc3)c2)c2cccc(F)c21 (stereo unspecified) | 
10.1 | 3.19 |  |  | 0.0437 | 0.02 | O=S(=O)(Nc1ncns1)c1cc(F)c(Oc2ccc(Cl)cc2-c2ccnn2C2CNC2)cc1F | fraction unbound at 5 h (in vitro [10]): 0.0532
 |  | 0.0021 | 3.15 |  |  | COc1cc(-n2nnc3cc(-c4ccc(Cl)cc4)sc3c2=O)ccc1N1CC[C@@H](O)C1 | 
 |  | 0.0268 | 2.8 |  |  | COc1ccc(-c2cc(C(F)F)nn2-c2ccc(S(N)(=O)=O)cc2)cc1F [DERACOXIB] | 
8.5 | 5.9 |  | 2.6 | 0.0127 | 0.0029 | O=C(Nc1ccc(Cl)c(S(=O)(=O)N2CCNCC2)c1O)Nc1cccc(F)c1Cl [ELUBRIXIN] | solubility thermodynamic (physchem [2]): 457 µM (≈ 212 µg/mL); hepatocyte CLint (in vitro [5]): 41.4 µL/min/1e6 cells; hepatocyte CLint (in vitro [11]): < 3 µL/min/1e6 cells; fraction unbound at 5 h (in vitro [10]): 0.0106
 |  | 0.19 | 2.72 |  |  | CC[C@H](Nc1ncnc2[nH]cnc12)c1nc2cccc(F)c2c(=O)n1-c1ccccc1 [IDELALISIB] | 
 | 6.2 |  |  | 0.0048 | 0.0024 | Nc1[nH]ncc1-c1cc(Cl)ccc1Oc1cc(F)c(S(=O)(=O)Nc2cscn2)cc1Cl [PF-05089771] | hepatocyte CLint (in vitro [11]): 5.62 µL/min/1e6 cells; fraction unbound at 5 h (in vitro [10]): 0.0055

Further lines, the compound ahead of its results:

SMILES | pKa (physchem [3]) | pKa (physchem [4]) | fraction unbound at 5 h (in vitro [6]) | logD (physchem [8]; pH 7.4, LogD7.4) | fraction unbound at 5 h (in vitro [9]) | fraction unbound at 5 h (in vitro [7]; PPB) | also measured
CC(C)[C@@H]1CC[C@@H](C)C[C@@H]1P(=O)(c1ccccc1)c1ccccc1 |  |  | 0.0039 |  |  |  | 
C/C=C/c1ccc(Oc2nnnn2-c2ccc(C(N)=O)cc2)c(OC)c1 |  |  | 0.0428 |  |  |  | fraction unbound at 5 h (in vitro [7]): 0.0268
C[C@H]1CN(Cc2cc(Cl)ccc2OCC(=O)O)CCN1C(=O)Cc1ccccc1 | 7 | 2.5 |  |  | 0.0784 |  | microsomal CLint (in vitro [1]; microsomes): < 3 µL/min/mg; logD (physchem [8]; pH 7.4): 0.18; fraction unbound at 5 h (in vitro [7]): 0.0262; fraction unbound at 5 h (in vitro [10]): 0.11
CCC(CC)NC(=O)c1c(C)nn(-c2ccccc2)c1NS(=O)(=O)c1ccc(C)cc1 |  | 4.2 |  | 1.35 | 0.0418 | 0.0049 | microsomal CLint (in vitro [1]; liver microsomes): 23.6 µL/min/mg; hepatocyte CLint (in vitro [5]): 13.5 µL/min/1e6 cells; hepatocyte CLint (in vitro [11]): < 3 µL/min/1e6 cells; fraction unbound at 5 h (in vitro [10]): 0.03
Cc1[nH]c(C(=O)NC2CCN(c3ncc(C(=O)O)s3)CC2)c(Cl)c1Cl |  |  | 0.197 |  |  | 0.0293 | 
Cc1nn(C2CCOCC2)c(NS(=O)(=O)c2ccc(C3CC3)cc2)c1C(=O)N[C@@H](C)C(C)(C)C |  | 5 |  | 1.23 | 0.107 | 0.0736 | fraction unbound at 5 h (in vitro [10]): 0.11
Cc1nn(C)c(C)c1-c1ccc(-c2nc3ccncc3c(O)c2C#N)cc1 |  |  | 0.0343 |  |  |  | 
C[C@@H](CC(=O)OC(C)(C)C)NC(=O)C1=NOC(C(O)(C(F)(F)F)C(F)(F)F)C1 (stereo partly specified) |  |  | 0.201 |  |  |  | 
COCCOc1nc(N)c2[nH]c(=O)n(Cc3ccccc3)c2n1 | 2.4 | 9.5 |  | 2.26 |  | 0.105 | microsomal CLint (in vitro [1]; liver microsomes): < 3 µL/min/mg; fraction unbound at 5 h (in vitro [10]): 0.376
CN1C(=N)N[C@](C)(c2cc(-c3cccc(C#N)c3)cs2)CC1=O |  |  | 0.249 |  |  | 0.0836 | 
CC#Cc1cncc(-c2csc([C@]3(C)CC(=O)N(C)C(N)=N3)c2)c1 |  |  | 0.17 |  |  | 0.119 | 
CCC#Cc1cncc(-c2ccc3c(c2)C2(N=C(C)C(N)=N2)[C@]2(CC[C@H](OC)CC2)C3)c1 (stereo partly specified) |  |  | 0.02 |  |  |  | 
O=C(O)COc1cccc(N2CCC(CN3CCC(Oc4ccc(Cl)c(Cl)c4)CC3)CC2)c1 | 9.3 | 3.7 |  |  |  |  | microsomal CLint (in vitro [1]; liver microsomes): 12 µL/min/mg; hepatocyte CLint (in vitro [5]): < 3 µL/min/1e6 cells
CC(C)S(=O)(=O)N(C)c1cc(C(=O)N[C@@H](Cc2ccccc2)[C@@H](N)CF)cc(NC[C@H]2C[C@@H]2C)n1 |  |  | 0.0191 |  |  | 0.0447 | 
Cn1c(-c2cccc(F)c2)nc2c(N)nc(C#CC3(O)CCCC3)nc21 |  |  | 0.0752 |  |  | 0.119 | 
N#Cc1ccc(NC(=O)Nc2ccccc2Br)c2nn[nH]c12 |  | 6.2 |  | 1.64 | 0.0049 | 0.0042 | microsomal CLint (in vitro [1]; microsomes): 23 µL/min/mg; hepatocyte CLint (in vitro [5]): 69 µL/min/1e6 cells
CN(C)S(=O)(=O)NC(=O)CCCc1c(-c2ccc(F)cc2)[nH]c2ccc(C#N)cc12 |  | 5.5 |  |  | 0.0196 | 0.0041 | microsomal CLint (in vitro [1]; microsomes): 8.86 µL/min/mg; solubility thermodynamic (physchem [2]): 4.8 µM (≈ 2.06 µg/mL); hepatocyte CLint (in vitro [5]): < 3 µL/min/1e6 cells; fraction unbound at 5 h (in vitro [10]): 0.0042
OC1(c2ccc(Cl)cc2)CCN(Cc2c[nH]c3ccccc23)CC1 |  |  | 0.0872 |  |  |  | logD (physchem [8]; pH 7.4): 2.25; solubility thermodynamic (physchem [2]): 562 µM (≈ 192 µg/mL)
Fc1ccc(-c2cc(C3CCN(Cc4ccn(-c5ccc(C(F)(F)F)cc5)c4)CC3)no2)cc1 |  |  | 0.0005 |  |  |  | 
CCCSc1ccc2nc(NC(=O)OC)[nH]c2c1 [ALBENDAZOLE] | 5.88 | 10.5 |  |  |  |  | microsomal CLint (in vitro [1]; microsomes): 34.7 µL/min/mg; logD (physchem [8]; pH 7.4): 3.24; solubility thermodynamic (physchem [2]): 1.6 µM (≈ 0.425 µg/mL); fraction unbound at 5 h (in vitro [7]): 0.0457; hepatocyte CLint (in vitro [5]): 83.2 µL/min/1e6 cells; fraction unbound at 5 h (in vitro [10]): 0.0581
CCCn1c(=O)c2[nH]c(-c3cnn(Cc4cccc(C(F)(F)F)c4)c3)nc2n(CC)c1=O [GS 6201] |  |  | 0.001 |  |  |  | 
CN1CCN(CC(=O)N2c3ccccc3C(=O)Nc3cccnc32)CC1 [PIRENZEPINE] | 7.88 | 10.7 |  | -0.49 |  | 0.76 | microsomal CLint (in vitro [1]; liver microsomes): < 3 µL/min/mg; hepatocyte CLint (in vitro [5]): 6.76 µL/min/1e6 cells
CCN(CC)CCNC(=O)c1ccc(NS(C)(=O)=O)cc1 [SEMATILIDE] | 9.35 | 7.52 |  |  | 0.899 | 0.849 | fraction unbound at 5 h (in vitro [10]): 0.899
